In brackets after ≈: the same amount, converted by molar mass.
Columns and labels:
[1] = Unbound AUClast in female C57BL/6J mouse lung at 30 mg/kg, po measured after 24 hrs by UPLC-MS/MS analysis; assay type: ADME, organism-based; conditions: in vivo
[2] = Half life in female C57BL/6J mouse at 2 mg/kg, iv measured after 24 hrs by UPLC-MS/MS analysis; assay type: ADME, organism-based; conditions: in vivo
[3] = Unbound Cmax in female C57BL/6J mouse plasma at 30 mg/kg, po measured after 24 hrs by UPLC-MS/MS analysis; assay type: ADME, organism-based; conditions: in vivo
[4] = Unbound AUClast in female C57BL/6J mouse plasma at 30 mg/kg, po measured after 24 hrs by UPLC-MS/MS analysis; assay type: ADME, organism-based; conditions: in vivo
[5] = Total AUClast in female C57BL/6J mouse plasma at 30 mg/kg, po measured after 24 hrs by UPLC-MS/MS analysis; assay type: ADME, organism-based; conditions: in vivo
[6] = Oral bioavailability in female C57BL/6J mouse at 2 mg/kg, iv measured after 24 hrs by UPLC-MS/MS analysis; assay type: ADME, organism-based; conditions: in vivo
[7] = Clearance in female C57BL/6J mouse at 2 mg/kg, iv measured after 24 hrs by UPLC-MS/MS analysis; assay type: ADME, organism-based; conditions: in vivo
[8] = Metabolic stability in human liver microsomes assessed as intrinsic clearance measured per mg of protein at 0.5 uM measured upto 45 mins in presence of NADPH regenerating system by HPLC-MS/MS analysis; assay type: ADME, Microsome; conditions: read-out: CLH
[9] = Tlast in female C57BL/6J mouse lung at 30 mg/kg, po measured after 24 hrs by UPLC-MS/MS analysis; assay type: ADME, organism-based; conditions: in vivo
Bile salt export pump = Bile salt export pump (Homo sapiens, UniProt O95342); test: Inhibition of BSEP in cryopreserved sandwich-cultured human hepatocytes by measuring reduction in TCA biliary clearance using taurocholic acid as substrate; assay type: cell-based, Hepatocyte
Sequence of Bile salt export pump (O95342 whole entry): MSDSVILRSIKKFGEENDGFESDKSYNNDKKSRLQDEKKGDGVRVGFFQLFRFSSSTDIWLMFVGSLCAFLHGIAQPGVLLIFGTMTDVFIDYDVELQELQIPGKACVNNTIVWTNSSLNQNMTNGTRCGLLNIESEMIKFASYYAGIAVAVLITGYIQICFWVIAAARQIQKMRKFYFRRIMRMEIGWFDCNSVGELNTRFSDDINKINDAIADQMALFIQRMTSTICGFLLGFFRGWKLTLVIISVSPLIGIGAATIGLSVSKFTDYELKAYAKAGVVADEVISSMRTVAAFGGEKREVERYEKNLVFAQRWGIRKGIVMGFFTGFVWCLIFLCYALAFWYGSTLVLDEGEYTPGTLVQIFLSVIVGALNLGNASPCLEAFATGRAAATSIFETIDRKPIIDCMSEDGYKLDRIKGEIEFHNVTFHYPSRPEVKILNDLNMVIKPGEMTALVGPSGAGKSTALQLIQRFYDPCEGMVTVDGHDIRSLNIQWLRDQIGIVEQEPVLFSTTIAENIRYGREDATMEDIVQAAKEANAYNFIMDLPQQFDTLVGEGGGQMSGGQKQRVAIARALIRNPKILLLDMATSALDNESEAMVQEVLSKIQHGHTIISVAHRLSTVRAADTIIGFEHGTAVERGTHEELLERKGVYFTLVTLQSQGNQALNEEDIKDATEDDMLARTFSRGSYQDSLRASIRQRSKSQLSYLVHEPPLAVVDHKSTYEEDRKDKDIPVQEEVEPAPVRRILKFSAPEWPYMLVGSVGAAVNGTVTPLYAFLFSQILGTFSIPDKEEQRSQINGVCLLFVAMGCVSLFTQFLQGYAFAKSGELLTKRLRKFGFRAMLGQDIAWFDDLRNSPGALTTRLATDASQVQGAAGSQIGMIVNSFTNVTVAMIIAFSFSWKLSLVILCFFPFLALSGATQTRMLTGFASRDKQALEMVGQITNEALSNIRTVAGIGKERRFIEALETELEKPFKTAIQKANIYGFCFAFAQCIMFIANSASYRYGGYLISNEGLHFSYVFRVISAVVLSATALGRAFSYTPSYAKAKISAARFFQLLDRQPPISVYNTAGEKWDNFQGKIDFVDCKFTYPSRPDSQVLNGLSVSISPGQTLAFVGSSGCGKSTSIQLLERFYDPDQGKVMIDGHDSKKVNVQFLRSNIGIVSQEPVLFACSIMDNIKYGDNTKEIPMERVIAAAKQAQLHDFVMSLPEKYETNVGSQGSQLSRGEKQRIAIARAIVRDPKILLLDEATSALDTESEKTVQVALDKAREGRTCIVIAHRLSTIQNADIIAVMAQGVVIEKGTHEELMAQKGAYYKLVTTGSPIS

[10] = Lipophilicity, logD of compound at pH 7.4 by chromatographic hydrophobicity index method; assay type: physicochemical; conditions: buffer
BSEP = BSEP (Homo sapiens, UniProt O95342); test: Inhibition of BSEP in cryopreserved sandwich-cultured human hepatocytes by measuring reduction in TCA biliary clearance using taurocholic acid as substrate at 50 uM relative to control; assay type: cell-based, Hepatocyte; conditions: cryopreserved sandwich-cultured hepatocytes, probe taurocholic acid
Sequence of BSEP (O95342 whole entry): as above

[11] = Tlast in female C57BL/6J mouse plasma at 30 mg/kg, po measured after 24 hrs by UPLC-MS/MS analysis; assay type: ADME, organism-based; conditions: in vivo
[12] = target: Lysophosphatidic acid receptor 1 (Mus musculus, UniProt P61793); test: Antagonist activity at mouse LPA1 transfected in human HeLa cells incubated for 30 mins by FLIPR-based calcium mobilization assay; assay type: cell-based
Sequence of Lysophosphatidic acid receptor 1 (P61793 whole entry): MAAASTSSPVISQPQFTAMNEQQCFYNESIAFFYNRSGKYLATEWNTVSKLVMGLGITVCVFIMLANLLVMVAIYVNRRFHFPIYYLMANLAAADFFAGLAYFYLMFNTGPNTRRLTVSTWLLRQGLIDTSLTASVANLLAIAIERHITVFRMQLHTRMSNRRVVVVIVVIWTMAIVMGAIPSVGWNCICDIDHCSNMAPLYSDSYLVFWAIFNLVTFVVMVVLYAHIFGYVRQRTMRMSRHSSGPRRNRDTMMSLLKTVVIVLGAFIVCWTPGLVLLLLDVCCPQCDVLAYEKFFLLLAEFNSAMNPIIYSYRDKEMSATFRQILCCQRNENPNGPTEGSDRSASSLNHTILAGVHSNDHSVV

[13] = Aqueous solubility of the compound at pH 7.4; assay type: physicochemical; conditions: buffer
[14] = Total Cmax in female C57BL/6J mouse plasma at 30 mg/kg, po measured after 24 hrs by UPLC-MS/MS analysis; assay type: ADME, organism-based
[15] = Unbound Cmax in female C57BL/6J mouse lung at 30 mg/kg, po measured after 24 hrs by UPLC-MS/MS analysis; assay type: ADME, organism-based; conditions: in vivo
[16] = Total AUClast in female C57BL/6J mouse lung at 30 mg/kg, po measured after 24 hrs by UPLC-MS/MS analysis; assay type: ADME, organism-based; conditions: in vivo
[17] = Volume of distribution at steady state in female C57BL/6J mouse at 2 mg/kg, iv measured after 24 hrs by UPLC-MS/MS analysis; assay type: ADME, organism-based; conditions: in vivo, read-out: Vdss
[18] = Metabolic stability in female C57BL/6J mouse liver microsomes assessed as intrinsic clearance measured per mg of protein at 0.5 uM measured upto 45 mins in presence of NADPH regenerating system by HPLC-MS/MS analysis; assay type: ADME, Microsome; conditions: read-out: CLH
[19] = Total Cmax in female C57BL/6J mouse lung at 30 mg/kg, po measured after 24 hrs by UPLC-MS/MS analysis; assay type: ADME, organism-based
[20] = Drug uptake in mouse lung at 30 mg/kg, po measured upto 24 hrs; assay type: ADME, organism-based; conditions: in vivo
Mus musculus = test: Inhibition of LPA-stimulated histamine release in male CD1 mouse plasma assessed as effective dose administered as po dose pretreated for 30 mins followed by LPA addition measured after 2 mins by enzyme immunoassay; assay type: functional; conditions: 32 min
[21] = target: Phosphatidylcholine translocator ABCB4 (Homo sapiens, UniProt P21439); test: Inhibition of MDR3 in human hepatocytes in the presence of TCA incubated for 3 hrs by LC-MS/MS; assay type: cell-based, Hepatocyte
Sequence of Phosphatidylcholine translocator ABCB4 (P21439 whole entry): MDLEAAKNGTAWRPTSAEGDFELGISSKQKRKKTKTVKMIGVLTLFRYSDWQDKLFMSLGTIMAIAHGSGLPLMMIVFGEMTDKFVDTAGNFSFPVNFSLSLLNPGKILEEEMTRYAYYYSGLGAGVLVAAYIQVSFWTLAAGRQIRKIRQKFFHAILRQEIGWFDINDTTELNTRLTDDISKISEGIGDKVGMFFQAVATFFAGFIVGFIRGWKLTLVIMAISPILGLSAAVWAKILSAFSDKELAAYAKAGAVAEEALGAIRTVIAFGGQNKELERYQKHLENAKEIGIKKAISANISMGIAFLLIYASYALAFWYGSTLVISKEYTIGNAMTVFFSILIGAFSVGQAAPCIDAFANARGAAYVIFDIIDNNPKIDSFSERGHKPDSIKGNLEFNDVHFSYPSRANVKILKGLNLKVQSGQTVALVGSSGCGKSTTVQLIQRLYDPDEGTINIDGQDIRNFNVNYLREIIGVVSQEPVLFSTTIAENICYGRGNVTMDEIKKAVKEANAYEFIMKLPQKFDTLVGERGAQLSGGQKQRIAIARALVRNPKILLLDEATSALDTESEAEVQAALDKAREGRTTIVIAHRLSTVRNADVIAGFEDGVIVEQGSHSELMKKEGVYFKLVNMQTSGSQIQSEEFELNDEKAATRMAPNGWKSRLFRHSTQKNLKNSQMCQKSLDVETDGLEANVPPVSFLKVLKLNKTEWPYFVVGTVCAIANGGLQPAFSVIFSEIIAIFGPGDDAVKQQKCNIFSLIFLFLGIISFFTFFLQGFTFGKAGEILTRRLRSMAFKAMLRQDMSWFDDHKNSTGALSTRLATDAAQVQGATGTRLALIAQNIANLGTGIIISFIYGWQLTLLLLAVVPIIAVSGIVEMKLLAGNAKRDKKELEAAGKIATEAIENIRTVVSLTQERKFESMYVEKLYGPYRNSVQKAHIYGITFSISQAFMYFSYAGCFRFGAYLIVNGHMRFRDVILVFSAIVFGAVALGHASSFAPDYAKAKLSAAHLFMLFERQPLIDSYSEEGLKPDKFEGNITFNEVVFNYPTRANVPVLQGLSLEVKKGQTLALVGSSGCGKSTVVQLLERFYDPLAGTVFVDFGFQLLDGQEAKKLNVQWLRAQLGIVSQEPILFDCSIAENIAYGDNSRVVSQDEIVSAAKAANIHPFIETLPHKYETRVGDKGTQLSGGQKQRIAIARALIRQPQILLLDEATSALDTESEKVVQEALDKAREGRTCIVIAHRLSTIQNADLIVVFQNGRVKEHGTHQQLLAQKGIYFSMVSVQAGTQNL

[22] = target: ATP-binding cassette sub-family C member 3 (Homo sapiens, UniProt O15438); test: Inhibition of MRP3 (unknown origin) in presence of ATP by membrane vesicular transport assay; assay type: cell membranes, Membrane vesicle
[23] = target: T1, ATP-binding cassette sub-family C member 4 (Homo sapiens, UniProt O15439); test: Inhibition of MRP4 (unknown origin) in presence of ATP by membrane vesicular transport assay; assay type: cell membranes, Membrane vesicle
T1 sequence (O15439 whole entry): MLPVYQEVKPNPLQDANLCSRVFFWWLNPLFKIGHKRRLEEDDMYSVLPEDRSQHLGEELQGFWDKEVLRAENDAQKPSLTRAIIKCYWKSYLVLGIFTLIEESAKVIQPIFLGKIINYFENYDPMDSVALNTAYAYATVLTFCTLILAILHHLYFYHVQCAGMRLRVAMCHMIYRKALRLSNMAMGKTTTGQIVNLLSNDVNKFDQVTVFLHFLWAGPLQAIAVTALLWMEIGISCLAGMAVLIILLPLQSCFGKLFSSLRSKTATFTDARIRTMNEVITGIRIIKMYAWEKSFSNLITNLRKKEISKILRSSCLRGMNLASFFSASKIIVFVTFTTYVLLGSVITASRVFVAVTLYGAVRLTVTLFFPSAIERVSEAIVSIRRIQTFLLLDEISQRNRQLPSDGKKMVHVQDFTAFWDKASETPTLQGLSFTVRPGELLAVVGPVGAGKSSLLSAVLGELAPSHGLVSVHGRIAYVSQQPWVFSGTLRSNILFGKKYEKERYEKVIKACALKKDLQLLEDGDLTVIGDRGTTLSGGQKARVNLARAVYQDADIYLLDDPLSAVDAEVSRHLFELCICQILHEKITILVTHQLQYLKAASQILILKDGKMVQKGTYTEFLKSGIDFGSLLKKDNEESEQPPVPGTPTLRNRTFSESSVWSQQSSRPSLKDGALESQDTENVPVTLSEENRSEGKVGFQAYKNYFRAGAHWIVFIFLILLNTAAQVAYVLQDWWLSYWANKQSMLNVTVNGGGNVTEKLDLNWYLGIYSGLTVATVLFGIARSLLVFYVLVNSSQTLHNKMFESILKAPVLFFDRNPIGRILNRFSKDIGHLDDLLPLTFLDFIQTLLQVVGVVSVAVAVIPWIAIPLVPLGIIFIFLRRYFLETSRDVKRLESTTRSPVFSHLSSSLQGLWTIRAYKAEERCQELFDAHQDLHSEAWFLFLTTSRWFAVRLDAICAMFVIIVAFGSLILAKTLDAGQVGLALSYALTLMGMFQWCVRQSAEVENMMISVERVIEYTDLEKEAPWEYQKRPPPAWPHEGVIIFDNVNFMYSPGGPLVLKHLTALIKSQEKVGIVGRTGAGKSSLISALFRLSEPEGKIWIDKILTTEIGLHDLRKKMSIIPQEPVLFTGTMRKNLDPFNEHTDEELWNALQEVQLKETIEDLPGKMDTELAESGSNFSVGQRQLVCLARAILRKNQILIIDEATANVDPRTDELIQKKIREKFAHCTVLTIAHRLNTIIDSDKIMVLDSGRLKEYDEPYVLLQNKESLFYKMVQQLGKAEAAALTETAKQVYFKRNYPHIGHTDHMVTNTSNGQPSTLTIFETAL

[24] = target: T2, Solute carrier organic anion transporter family member 1B3 (Homo sapiens, UniProt Q9NPD5); test: Inhibition of human OATP1B3 in HEK293 cells; assay type: cell-based
T2 sequence (Q9NPD5 whole entry): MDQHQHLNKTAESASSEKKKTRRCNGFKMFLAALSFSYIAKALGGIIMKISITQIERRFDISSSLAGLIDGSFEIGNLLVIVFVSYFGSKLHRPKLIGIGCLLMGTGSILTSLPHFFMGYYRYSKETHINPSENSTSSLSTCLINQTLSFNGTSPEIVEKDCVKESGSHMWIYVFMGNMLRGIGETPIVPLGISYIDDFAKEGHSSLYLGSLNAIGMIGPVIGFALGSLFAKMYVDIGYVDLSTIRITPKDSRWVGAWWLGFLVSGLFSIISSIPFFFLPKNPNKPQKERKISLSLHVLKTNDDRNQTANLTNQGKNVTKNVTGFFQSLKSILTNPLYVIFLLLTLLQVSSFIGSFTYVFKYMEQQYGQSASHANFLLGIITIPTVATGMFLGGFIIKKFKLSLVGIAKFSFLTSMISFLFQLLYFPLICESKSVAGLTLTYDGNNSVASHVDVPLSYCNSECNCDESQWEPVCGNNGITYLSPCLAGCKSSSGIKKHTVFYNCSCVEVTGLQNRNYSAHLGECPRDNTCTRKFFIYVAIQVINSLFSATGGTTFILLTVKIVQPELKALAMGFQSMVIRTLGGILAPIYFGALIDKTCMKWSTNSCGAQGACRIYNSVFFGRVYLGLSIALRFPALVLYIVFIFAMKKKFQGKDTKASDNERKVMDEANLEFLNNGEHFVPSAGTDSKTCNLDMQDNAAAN

[25] = target: ATP-binding cassette sub-family C member 2 (Homo sapiens, UniProt Q92887); test: Inhibition of MRP2 (unknown origin) in presence of ATP by membrane vesicular transport assay; assay type: cell membranes, Membrane vesicle
Sequence of ATP-binding cassette sub-family C member 2 (Q92887 whole entry): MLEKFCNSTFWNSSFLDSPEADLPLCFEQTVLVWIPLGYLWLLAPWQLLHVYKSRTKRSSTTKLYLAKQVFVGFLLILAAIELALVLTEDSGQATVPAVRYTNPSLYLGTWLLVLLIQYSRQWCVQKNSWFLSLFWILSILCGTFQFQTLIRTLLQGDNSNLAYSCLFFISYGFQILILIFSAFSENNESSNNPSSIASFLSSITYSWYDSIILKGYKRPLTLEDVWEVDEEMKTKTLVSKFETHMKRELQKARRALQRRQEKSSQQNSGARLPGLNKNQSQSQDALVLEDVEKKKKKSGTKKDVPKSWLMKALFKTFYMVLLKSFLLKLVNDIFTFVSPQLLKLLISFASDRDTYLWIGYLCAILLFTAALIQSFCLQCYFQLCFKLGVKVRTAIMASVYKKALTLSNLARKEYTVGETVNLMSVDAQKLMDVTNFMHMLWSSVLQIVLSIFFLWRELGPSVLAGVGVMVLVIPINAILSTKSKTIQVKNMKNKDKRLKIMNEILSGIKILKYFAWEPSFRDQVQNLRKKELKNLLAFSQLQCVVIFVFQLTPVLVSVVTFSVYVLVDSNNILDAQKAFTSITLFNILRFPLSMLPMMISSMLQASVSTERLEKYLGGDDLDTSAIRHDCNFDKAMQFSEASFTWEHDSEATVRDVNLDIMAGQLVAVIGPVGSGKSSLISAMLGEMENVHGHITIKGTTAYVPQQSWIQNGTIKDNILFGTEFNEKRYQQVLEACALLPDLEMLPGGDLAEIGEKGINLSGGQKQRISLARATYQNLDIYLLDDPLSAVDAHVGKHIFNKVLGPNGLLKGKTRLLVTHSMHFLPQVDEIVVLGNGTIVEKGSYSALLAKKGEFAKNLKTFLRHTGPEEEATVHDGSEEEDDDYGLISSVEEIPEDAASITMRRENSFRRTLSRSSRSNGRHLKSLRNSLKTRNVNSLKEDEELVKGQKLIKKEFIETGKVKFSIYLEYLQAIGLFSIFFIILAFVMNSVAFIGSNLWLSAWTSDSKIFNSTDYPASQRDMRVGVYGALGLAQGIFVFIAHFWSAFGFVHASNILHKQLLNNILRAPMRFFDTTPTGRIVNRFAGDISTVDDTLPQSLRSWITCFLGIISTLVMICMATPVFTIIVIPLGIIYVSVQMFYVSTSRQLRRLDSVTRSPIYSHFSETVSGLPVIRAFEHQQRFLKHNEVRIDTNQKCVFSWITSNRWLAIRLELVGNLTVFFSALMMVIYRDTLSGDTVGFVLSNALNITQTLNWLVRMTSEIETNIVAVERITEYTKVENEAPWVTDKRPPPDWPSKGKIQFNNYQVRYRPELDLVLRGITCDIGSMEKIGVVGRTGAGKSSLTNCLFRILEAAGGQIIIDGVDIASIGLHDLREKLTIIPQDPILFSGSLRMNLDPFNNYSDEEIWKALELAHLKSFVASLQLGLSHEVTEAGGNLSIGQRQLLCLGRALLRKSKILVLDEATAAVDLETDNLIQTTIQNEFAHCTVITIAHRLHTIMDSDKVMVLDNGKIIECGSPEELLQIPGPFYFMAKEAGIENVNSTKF

[26] = target: T3, Solute carrier organic anion transporter family member 1B1 (Homo sapiens, UniProt Q9Y6L6); test: Inhibition of human OATP1B1 in HEK293 cells; assay type: cell-based
T3 sequence (Q9Y6L6 whole entry): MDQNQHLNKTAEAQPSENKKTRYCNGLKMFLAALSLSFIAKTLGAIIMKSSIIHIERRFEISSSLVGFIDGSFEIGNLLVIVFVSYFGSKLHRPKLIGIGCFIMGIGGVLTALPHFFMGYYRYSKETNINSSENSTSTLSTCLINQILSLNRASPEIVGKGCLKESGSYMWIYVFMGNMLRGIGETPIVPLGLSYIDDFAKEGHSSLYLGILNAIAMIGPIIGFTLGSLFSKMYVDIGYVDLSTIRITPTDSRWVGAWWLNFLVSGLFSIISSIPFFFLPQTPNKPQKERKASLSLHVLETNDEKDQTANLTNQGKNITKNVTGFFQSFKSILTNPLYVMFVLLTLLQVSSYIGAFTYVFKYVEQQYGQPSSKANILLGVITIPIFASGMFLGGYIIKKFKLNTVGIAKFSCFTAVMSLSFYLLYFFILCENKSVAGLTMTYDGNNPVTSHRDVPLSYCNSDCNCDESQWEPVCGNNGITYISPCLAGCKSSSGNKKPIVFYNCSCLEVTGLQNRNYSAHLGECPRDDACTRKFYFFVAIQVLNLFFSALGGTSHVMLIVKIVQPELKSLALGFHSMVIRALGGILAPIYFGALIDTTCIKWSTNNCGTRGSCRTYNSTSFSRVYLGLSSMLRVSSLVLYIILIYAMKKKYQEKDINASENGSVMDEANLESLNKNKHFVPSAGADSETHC

| SMILES | fAUClast [1] [h/ng/mL] | half-life [2] [h] | fCmax [3] [ng/mL] | fAUClast [4] [h/ng/mL] | AUClast [5] [h/ng/mL] | bioavailability [6] [%] | clearance [7] [mL/min/kg] | microsomal CLint at 0.5 µM [8] [µL/min/mg] | Tlast [9] [h] | IC50 (Bile salt export pump) [µM] | chromatographic logD [10] | inhibition at 50 µM (BSEP) [%] | Tlast [11] [h] | IC50 [12] [µM] | solubility [13] [µM] | Cmax [14] [ng/mL] | fCmax [15] [ng/mL] | AUClast [16] [h/ng/mL] | Vd [17] [L/kg] | microsomal CLint at 0.5 µM [18] [µL/min/mg] | also measured |
| --- | --- | --- | --- | --- | --- | --- | --- | --- | --- | --- | --- | --- | --- | --- | --- | --- | --- | --- | --- | --- | --- |
| Cc1nc(-c2onc(C)c2Nc2cncc(OC(C)C)n2)ccc1NC(=O)[C@H]1CCCC[C@@H]1C(=O)O | 3846 | 1.96 | 1726 | 3105 | 109000 | 45 | 2.05 | < 2 | 8 | > 100 | 0.86 | 18 | 8 | 0.0398 | 644 (≈ 318 µg/mL) | 60600 | 1597 | 24800 | 0.16 | 11 | Cmax [19]: 10300 ng/mL |
| Cc1nc(-c2onc(C)c2NC(=O)O[C@H](C)c2ccccc2)ccc1NC(=O)[C@H]1CCCC[C@@H]1C(=O)O | 3967 | 1.81 | 2189 | 7686 | 315000 | 100 | 1.75 | 2.3 | 8 | 100 | 1.27 | 28 | 24 | 0.0126 | 641 (≈ 325 µg/mL) | 89700 | 1225 | 57300 | 0.2 | 3.5 | Drug uptake [20]: Active; ED50 (Mus musculus): 0.1 mg/kg; Cmax [19]: 17700 ng/mL |
| Cc1noc(-c2ccc(-c3ccc(C4(C(=O)O)CC4)cc3)cc2)c1NC(=O)O[C@H](C)c1ccccc1 [BMS-986020] | – | – | – | – | – | – | – | – | – | 2 | – | – | – | – | – | – | – | – | – | – | IC50 [21]: 7.94 µM; IC50 [22]: 20 µM; IC50 [23]: 6.31 µM; IC50 [24]: 0.631 µM; IC50 [25]: 50.1 µM; IC50 [26]: 0.158 µM |
